Reference: US20220332774A1, “THERAPEUTIC MITOCHONDRIAL PEPTIDES” (priority 2019, published 2022)

Columns and labels:
H4-IIE Cells = assay: Glucose production in cultured H4-IIE cells; format: cell-based, rat; conditions: glucose concentration in medium relative to untreated cells; 5 μM peptide, 24 h
In short: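 Rat H4-IIE hepatoma cells primed overnight in glucose-free DMEM with 2 mM pyruvate and 10 mM lactate, then treated 24 h at 37 °C with 5 μM peptide (0.1% DMSO; concentration assumes ~2000 Da). Medium glucose measured colorimetrically at 570 nm. Values are percent of untreated-cell glucose production; 0.5-1 nM insulin served as inhibitor reference.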

3T3-L1 Mouse Adipocytes = assay: Free fatty acid levels in cultured 3T3-L1 mouse adipocytes (isoproterenol stimulated); format: cell-based; conditions: free fatty acid in medium; 5 μM peptide, 20-22 h pre-incubation then 3 h with 0.1 nM isoproterenol; isoproterenol alone = 100%
In short: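 3T3-L1 cells differentiated 12 days, insulin withdrawn, then peptides added on day 13 at 5 μM (0.1% DMSO) for 20-22 h at 37° C. After 3 h in assay buffer, medium free fatty acids read at 540 nm. Values expressed as percent of 0.1 nM isoproterenol-alone control.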

C2C12 Cells = assay: Glucose utilization in cultured C2C12 cells (myotubes); format: cell-based, mouse; conditions: glucose concentration in medium relative to untreated cells; 5 μM peptide, 22 h
In short: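 Differentiated mouse myotubes (5 days in 2% horse serum) serum-starved 5 h, then treated 22 h at 37 °C with peptide at 5 μM final (0.1% DMSO) in low-glucose (1 g/L) DMEM. Glucose remaining in medium measured colorimetrically at 570 nm. Expressed as percent of untreated control, from 2–3 experiments in triplicate.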

| Substance | Percent of Control Activity (H4-IIE Cells) [%] | Percent of Isoproterenol Control Activity (3T3-L1 Mouse Adipocytes) [%] | Percent of Control Activity (C2C12 Cells) [%] |
| --- | --- | --- | --- |
| 168 (MYCNWDCSGE) [compound 168] | 120 | 108 | 103 |
| 169 (MYLNGTCSAS) [compound 169] | 109 | 110 | 107 |
| 170 (MYNYAKAPTL) [compound 170] | 109 | 95 | 106 |
| 171 (MYRHLQQTLMKATK) [compound 171] | 100 | 104 | 110 |
| 172 (MYTNKQCSTSNYY) [compound 172] | 111 | 94 | 106 |
| 173 (MYTPTNNVQPVTTTNQRP) [compound 173] | 103 | 114 | 95 |
| 174 (MYYSDGYWGVSWGMGV) [compound 174] | 110 | 105 | 93 |
| 176 (MKNIEAPLAW) [compound 176] | 108 | 95 | 103 |
| 177 (MRMGASIGSTTRLSTS) [compound 177] | 111 | 94 | 91 |
| 178 (MVQTVSISWASEMLVLVSFVVSV) [compound 178] | 108 | 90 | 99 |
| 179 (MSSSMMGEVASC) [compound 179] | 100 | 102 | 105 |
| 180 (MVVGSWCWSLSWVVGMR) [compound 180] | 106 | 101 | 103 |
| 181 (MCHWAGGASNTGDA) [compound 181] | 109 | 103 | 107 |
| 182 (MFAVSMMWSLE) [compound 182] | 113 | 92 | 98 |
| 183 (MMKVDATMDFT) [compound 183] | 121 | 94 | 101 |
| 184 (MASAKGCSSP) [compound 184] | 118 | 104 | 106 |
| 185 (MLVMLEVMFLVN) [compound 185] | 119 | 86 | 92 |
| 186 (MIINDEYWLVVLVMVHCPESMLLK) [compound 186] | 115 | 105 | 94 |
| 187 (AYEGCCYSCKQEDNADVSGFWVEK) [compound 187] | 113 | 102 | 110 |
| 188 (DWSNWVWGVQLYVWDFLGSGCWAW) [compound 188] | 125 | 104 | 113 |
| 189 (FEELINVWVWVYMSQWEFYDGPCN) [compound 189] | 116 | 95 | 98 |
| 190 (MYHSENSMMDHVTNNATGMNIMEK) [compound 190] | 118 | 101 | 107 |
| 191 (LGWGWPGGWVWGGGFMVEERWWEL) [compound 191] | 111 | 101 | 95 |
